# Values quoted from earlier work as cited in patent US9109008B2, “Tubulysin compounds, methods of making and use” (priority 2013, dated 2015).
# Test system: cancer cell lines
# Settings: Kaur et al. 2006
structure (smiles),measurement,value
CC[C@H](C)[C@H](NC(=O)[C@H]1CCCCN1C)C(=O)N(COC(=O)CC(C)C)[C@H](C[C@@H](OC(C)=O)c1nc(C(=O)N[C@@H](Cc2ccc(O)cc2)C[C@H](C)C(=O)O)cs1)C(C)C [tubulysin A],antiproliferative potency compared with other antimitotic agents,more potent than other antimitotic agents such as paclitaxel and vinblastine
